From US20180296531A1, “STIMULATION OF 11B-HSD2 EXPRESSION TO IMPROVE HORMONAL THERAPY OF STEROID-DEPENDENT DISEASE” (THE CLEVELAND CLINIC FOUNDATION, priority 2015, published 2018)

How the values were obtained:
11β-HSD1 protein = assay: Immunoblot of 11β-HSD1 protein in prostate cancer cell lines; type: cell-based, human; details: AR-expressing prostate cancer cell lines
Protocol: For protein analysis, immunoblots were performed as described previously. Li et al., J Clin Endocrinol Metab 98, E1189-1197 (2013). Briefly, total cellular protein was extracted with ice cold RIPA lysis buffer (Sigma-Aldrich) containing protease inhibitors (Roche). 30-50 μg protein was separated by 8% SDS-PAGE gel and then transferred to a nitrocellulose membrane (Millipore). After incubating with the anti-11β-HSD2 antibody (Santa Cruz; 1:3000), anti-11β-HSD1 antibody (Santa Cruz; 1:1000), GR antibody (BD Biosciences; 1:1000), anti-Erlin-2 antibody (Cell Signaling Technology: 1:1000) or anti-AMFR antibody (Proteintech; 1:1000) overnight at 4° C., the appropriate secondary antibody was incubated for 1 hour at room temperature. The chemiluminescent detection system (Thermo Scientific) was used to detect the bands with peroxidase activity. An anti-β-actin antibody (Sigma-Aldrich; 1:5000) was used as a control for sample loading.

[1] = tested on: GR, HSD11B2, HSD11B1 transcripts; assay: qPCR of GR, HSD11B2 and HSD11B1 transcripts; type: cell-based, human
Protocol: LAPC4 cells were treated with Enz for 36 days and then seeded into 12 well plates coated with poly-DL-ornithine at 50% confluence. After incubation overnight, the cells were transfected with 11β-HSD2-FLAG plasmid for 48 hours by using the TranslT®-2020 Transfection Reagent (Mirus) according to the protocol provided by the manufacturer, then maintained in phenol-red-free medium with 5% Charcoal:Dextran-stripped FBS for 48 hours before being treated with the indicated drugs. Total RNA was extracted with a GenElute Mammalian Total RNA miniprep kit (Sigma-Aldrich) and 1 μg RNA was reverse-transcribed to cDNA with the iScript cDNA Synthesis Kit (Bio-Rad). An ABI 7500 Real-Time PCR machine (Applied Biosystems) was used to perform the qPCR analysis, using iTaq Fast SYBR Green Supermix with ROX (Bio-Rad) in 96-well plates at a final reaction volume of 10 μl. The qPCR analysis was carried out in triplicate with suitable primers. Each mRNA transcript was quantitated by normalizing the sample values to RPLP0 and to vehicle treated cells (for steroid treated cells). All gene expression studies were repeated in independent experiments.

11β-HSD2 protein = assay: Human prostate cancer tissue studies, 11β-HSD2 protein; details: tissues from patients with prostate cancer treated with enzalutamide (in patients or ex vivo 10 μM, 7-8 days)
Protocol: All deidentified human tissues were obtained using institutional review board (IRB)-approved protocols. Pre- and post-Enz lymph node tissues were obtained from CT-guided biopsy of metastatic CRPC from Cleveland Clinic (Patient #3) and Dana-Farber Cancer Institute (Patient #4). Pathologic identification of tumor was done by an expert prostate cancer pathologist. Staining of tissues from Patient #4 was done with frozen section slides that were air dried at room temperature for 5 minutes, followed by rehydration with PBS. Immunofluorescence staining was performed as described above. H&E staining was completed by the imagine core of Biomedical Engineering Department in Lerner Research Institute of Cleveland Clinic.
Paired pre-Enz treatment and post-Enz treatment tissues from Patient #1 and Patient #2 were obtained from patients with localized prostate cancer treated with Enz plus ADT for 2 months prior to the second biopsy in a clinical trial (NCT02064582) at the University of Texas Southwestern Medical Center. Biopsies were obtained using image-guidance with a Koelis Urostation. The biopsy cores were minced into pieces and then added into Soft tissue homogenizing CK14 tubes (Betin Technologies) with 100 μl 6M Urea buffer containing protease inhibitors (Sigma Aldrich). Tissue homogenization and immunoblot analysis were performed as described previously. […]

tumor corticosterone = assay: Mass spectrometry of corticosterone in xenograft tumors; type: in vivo, mouse
Protocol: Xenograft analysis. At least 24 mg tumor tissue (n=18) was homogenized with 1 ml LC-MS grade water (Fisher) by using homogenizer. The mixture was then centrifuged. 800 μl of the supernatant was transferred to a glass tube, followed by the addition of 80 μl of 10 ng/ml internal standard (corticosterone-d8) (Steraloids). The steroids and the internal standard were extracted with methyl tert butyl ether (Across) evaporated to dryness under N2 then reconstituted with 500 μl of 50% methanol.
The LC-MS/MS system contains an ultra-pressure liquid chromatography system (Shimadzu Corporation, Japan) which is consisted of two LC-30AD pumps, a DGU-20A5R degasser, a CTO-30A column oven, SIL-30AC autosampler, and a system controller CBM-20A and coupled with a Qtrap 5500 mass spectrometer (AB Sciex). Data acquisition and processing were performed using Analyst® software (version 1.6.2) from ABSciex.
Steroids were ionized using electrospray ionization in positive mode. Quantification of analytes was performed using multiple reaction monitoring. The mass transitions for corticosterone, 11-dehydrocorticosterone, and internal standard are 347.3/121.0, 345.3/121.0, and 355.3/125.0, respectively. Separation of steroids was achieved using a Zorbax Eclipse plus C18 column (Agilent) using mobile phase consisting of (A) 0.2% formic acid in water and (B) 0.2% formic acid in (methanol:acetonitrile, 60:40) with a gradient program at a flow rate of 0.2 ml/min. Sample injection volume was 10 μl.

[2] = long-term Enz treatment, LAPC4 and VCaP
[3] = enzalutamide-treated 11β-HSD2 tumors
[4] = enzalutamide-treated vector tumors

**Q.** Which results are given for `CNC(=O)c1ccc(N2C(=S)N(c3ccc(C#N)c(C(F)(F)F)c3)C(=O)C2(C)C)cc1F` [enzalutamide]?
**A.** 11β-HSD1 protein (11β-HSD1 protein): no consistent effect on 11β-HSD1 was detectable; expression of GR, HSD11B2 or HSD11B1 transcripts ([1]; LAPC4, 24 hours (acute)): no acute effect on expression of GR, HSD11B2 or HSD11B1; GR transcript [1, 2]: GR transcript increases; HSD11B2 mRNA [1, 2]: No suppression of HSD11B2 mRNA; patient tissues with loss of 11β-HSD2 with treatment (11β-HSD2 protein): Nine of 11; percentage of tumor corticosterone of corticosterone plus 11-dehydrocorticosterone (tumor corticosterone; [3]): 33%; tumor corticosterone concentration (tumor corticosterone; [3]): 15.1 pmol/g; percentage of tumor corticosterone of corticosterone plus 11-dehydrocorticosterone (tumor corticosterone; [4]): 59%; tumor corticosterone concentration (tumor corticosterone; [4]): 44.5 pmol/g
